From US20150320782A1, “Methods, compositions and kits for treating, modulating, or preventing ocular angiogenesis or fibrosis in a subject using a galectin protein inhibitor” (TUFTS UNIVERSITY, priority 2012, published 2015)
Values joined by “and” are separate entries in the source; they are usually repeats but may differ in a detail not shown here. Equal entries are not always repeated. “Also recorded” adds a separate entry of the source.

Experiments:
[1] = system: TM cells on galectin-8 coated wells; settings: cited from earlier work
[2] = system: endothelial cell (EC) spheroids (HUVEC); type: cell-based
Protocol: Methyl cellulose powder (6 g) was autoclaved with stirring using a magnetic bar in a 500 mL bottle. The powder was dissolved in 250 mL of DMEM medium at 60° C. with stirring for 30 minutes, and then 250 mL DMEM at room temperature was added and the mixture was stirred for two hours at 4° C. The resulting mixture was then aliquoted into 50 mL cylindrical tubes and centrifuged (6170 revolutions per minute) for two hours at room temperature to remove debris interfering with spheroid formation. The clear supernatant was collected from the centrifuged tubes.
Endothelial cells (EC) were cultured in containers and were detached from the container surfaces with 0.25% trypsin. The pH of the trypsinized EC cells was neutralized with DMEM. Spheroid solution was prepared in tubes by combining 3.75 mL of methylcellulose, 1.75 mL FBS, 17.5 μl pen/strep, and […] endothelial cells, and adding DMEM to bring the total volume to 17.5 mL. The spheroid solution was mixed by inverting tubes, and 150 μl aliquots were added to each well of a 96 well plate using a multichannel pippettor and wide mouth tips. Spheroids were settled and were incubated for 24 hours at 37° C. in 5% CO2.
Each 96 well plate yielded spheroids sufficient for four wells of a 24 well plate. The collagen solution was prepared using 2.3 mL (3.9 mg/mL) collagen type 1, 400 μl 10×M199 medium, 200 μl FBS, and 1.1 mL water. The collagen solution was neutralized with sodium hydroxide using a color pH indicator. The methyl cellulose solution (4.5 mL) was combined with 1.5 mL DMEM and warmed to 37° C. in a water bath. EC spheroids were collected using a wide mouth pipette and centrifuged (700 revolutions per minutes) for three minutes at room temperature.
The resulting supernatant was removed, and two mL of methyl cellulose solution were added to the pellet. Neutralized collagen solution (2 mL) was added to the mixture, and mixed using a pipette carefully to avoid bubble formation.
An aliquot (1 mL) of the mixed collagen solution was added to four wells of a 24 well plate, and the plate was incubated at 37 C 5% CO2 for 30 minutes to polymerize the collagen. […] Control collagen samples were treated with 100 μl of EBM-2 and 25 ng/mL VEGF in EBM-2.
See Meyer et al. 2003 J Biol Chem. 278(18): 16347-55. Representative images of the incubated samples were obtained and the cumulative length in arbitrary units of the endothelial cell sprouts was determined by ImageJ processing and analysis procedures. The data was analyzed by Student's t-test (Table 2).

mouse corneas [3] = test: Silver nitrate cautery-induced corneal neovascularization, TD139; type: in vivo; settings: TD139 325 ng sub-conjunctival every other day, 50 μM eye drops daily; day five after cautery; control about 40%
Excerpt: FIG. 11A is a drawing of an experimental regimen for drug administration in murine subjects strain C57B/6L. […] Silver nitrate was applied on day zero to cauterize the eyes of the subjects. Mice were sacrificed on day five, and flat mounts of corneas were stained with anti-CD31 to visualize blood vessels. Data shown in FIG. 11 B-C were from subjects treated as described in FIG. 11A.
Neovascularization in the eye was induced in mouse corneas by cauterization using silver nitrate. […] Control subjects were sub-conjunctivally injected with vehicle only (PBS containing 0.5% DMSO only).
After five days of either sub-conjunctival injection treatment or eye drop treatment, subjects were sacrificed, and flat mounts of corneas were excised, photographed, and stained with anti-CD31 to visualize blood vessels (FIG. 11B, magnification is ×100). The density of blood vessels covering the whole cornea was quantified by ImageJ and was analyzed with Student's t test (FIG. 11C).

recombinant galectin-1 = recombinant galectin-1 (Homo sapiens, UniProt P09382); test: Microtiter plate binding assay with galectin receptor-HRP conjugate, galectin-1; settings: plate coated with recombinant galectin-1
recombinant galectin-3 = recombinant galectin-3 (Homo sapiens, UniProt P17931); test: Microtiter plate binding assay with galectin receptor-HRP conjugate, galectin-3; settings: plate coated with recombinant galectin-3
Protocol: Microtiter plate wells were coated with recombinant galectin-1 or galectin-3 (10 μg/ml, 50 μl/well), and then washed with wash solutions containing PBS and detergent. The wells were blocked with BSA, and washed with wash solution/buffer. […] Control wells included PBS only. An amount of galectin receptor-HRP conjugate (100 μL/well, 1 mg/mL) specific for either galectin-1 or galectin-3 was added to the respective wells. The wells were incubated for one hour and then washed with buffer at room temperature. The horse-radish peroxidase enzyme reaction was performed using a TMB-peroxidase substrate kit (BioRad Inc.). The reaction was stopped after one hour by addition of 1N sulfuric acid (100 μL/well) and the optical density was read at 450 nm.

HUVEC spheroids = test: VEGF-A-induced HUVEC spheroid sprouting in type I collagen gels; type: cell-based, human; settings: VEGF-A 100 ng/ml; TD139 0.1, 1, 5 and 10 μM; 24 hours
Protocol: HUVEC spheroids were prepared and seeded into type I collagen gels. […] Control collagen samples were treated with 100 μl of EBM-2 and 25 ng/mL VEGF in EBM-2. […] After a 24 hour incubation, spheroids were stained with calcein AM dye and photographed by a fluorescent microscope. Cumulative sprout lengths for HUVEC in gels were quantified by ImageJ.
HUVEC spheroids were prepared as described in examples herein, and the spheroids were seeded into type I collagen gels. […] Control spheroids were treated with neither VEGF-A nor TD139. After 24 hours of treatment, spheroids were stained with calcein AM, a cell-permeant dye that indicates cell viability in eukaryotic cells (Invitrogen Inc.), and the spheroids were photographed by a fluorescent microscope. Cumulative sprout lengths were quantified by ImageJ.

HUVEC [4] = test: VEGF-A-induced endothelial cell migration (chemotaxis chamber); type: cell-based, human; settings: three hours
Protocol: FIG. 13B is a bar graph showing migration distance (migration index, ordinate) of HUVEC cells treated with (abscissa) […] as in FIG. 13A. HUVECs were serum starved overnight, detached with proteolytic and collagenolytic enzyme product Accutase™ (Millipore Inc.), resuspended in 1% FBS/M199 and then added to the upper chamber of a migration testing system. […] After three hours of incubation, HUVECs that migrated to lower side of the membrane were counted.
HUVEC were incubated without serum overnight, detached with Accutase, re-suspended in 1% FBS/M199 and added in an upper chamber separated from a bottom chamber by a membrane. […] Control HUVEC were treated with neither VEGF-A nor TD139.
Data were plotted as mean±SEM and analyzed with one-way ANOVA. *P<0.05 vs control; ***P<0.001 vs control; ^###P<0.001 vs VEGF-A.

HUVEC [5] = test: HUVEC viability by calcein AM and WST-1; type: cell-based, human; settings: three hours treatment; TD139 5 μM, Triton X-100 0.1%
Protocol: The cell viabilities of the treated HUVEC and control HUVEC were determined with each of calcein AM and WST-1, two systems used to determine cell viability. Calcein AM was added to a group of treated HUVEC, which were incubated for 30 minutes (FIG. 14A). Another group of treated HUVEC were incubated for two hours with WST-1, a tetrazolium salt used for determining cell proliferation and is an indicator or cell viability (FIG. 14B). Data are plotted with mean±SEM and analyzed with one-way ANOVA. ***P<0.001 vs control. Fluorescence emission was detected by a spectrophotometer for each treated group contacted with either calcein AM or WST-1.

VEGFR2 = VEGFR2 expression in HUVEC by western blot; type: cell-based, human; settings: 10 μM TD139, six hours
Protocol: Cell lysates were analyzed by electrophoresis in 4-20% SDS-PAGE gels. The gels were transferred to western blot membranes, and were probed with anti-VEGFR-2 antibody (FIG. 15 top row) or β-actin antibody (FIG. 15 bottom row).
Control HUVEC were not treated with TD139. Cell lysates were analyzed using gel electrophoresis (4-20% SDS-PAGE gels), and the membrane blots were probed with either anti-VEGFR-2 antibodies or β-actin antibodies.

mouse corneas [6] = test: Alkali (sodium hydroxide) model of corneal fibrosis; settings: vs PBS
Protocol: C57BJ/6 mice were anesthetized by intraperiteoneal injection of a mixture of ketamine and xylazine. Corneas of the subjects were topically anesthetized by applying an eye drop of proparacain. 1.5 μl drop of 0.15M sodium hydroxide was applied for one minute to the central cornea of each subject. Each eye was immediately washed extensively in PBS, and corneal epithelium and limbal epithelium were gently removed with an ALGEBRUSH™ optical device (Storz Ophthalmic Instruments, St. Louis, Mo.). Each cornea was covered with an antibiotic ointment. […] Control subjects were injected subconjunctivally with control vehicle PBS. Corneas were visualized and analyzed for opacity, and protein markers for fibrosis were quantified as described below.
Mice were sacrificed at day 14 post surgery using a mixture of ketamine and xylazine. Mouse corneas were dissected and lysed in ice-cold lysis buffer containing 5 mM NaF, 1 mM PMSF, 1 mM DTT, 20 mM HEPES, 1 mM EDTA, 400 mM NaCl, 1 mM EGTA, 0.1% NP-40, and a protease inhibitor cocktail product (Roche). Aliquots of corneal protein (20 μg) were loaded to each lane of a gel and transferred onto a nitrocellulose membrane. Blots were probed overnight at 4° C. with either a rabbit antibody specific for α-smooth muscle actin (10,000 dilution; Abcam Inc., Cambridge, England), or with a control antibody specific for β-actin. The blots were extensively washed and were incubated with goat anti rabbit IRDye 800CW antibody (1:10,000 dilution; LI-Cor Biosciences; Lincoln Nebr.). Membranes were scanned and quantified using an Odessey imaging system (Li-Cor Biosciences).
C57BJ/6 mice were anesthetized by intraperiteoneal injection of ketamine and xylazine mixture. […]
Subjects were sacrificed on day fourteen after alkalisurgery using a mixture of ketamine and xylazine. […] The membranes were washed and incubated with goat anti rabbit IRDye 800CW antibody (1:10,000; Li-Cor Inc.), the membranes were scanned and quantified with Odessey imaging system (Li-Cor Inc.).
SMA (smooth muscle actin) is a marker of corneal fibrosis. […] Opacity of the eye was scored on day 7 and day 14. […]

mouse retinas = test: Alkali (sodium hydroxide) model, retinal gliosis (GFAP western blot); settings: 10 μl of 50 mM TD139 subconjunctival daily for 14 days; vs PBS
Protocol: Corneas of murine subjects were contacted with sodium hydroxide. […] Control subjects were injected subconjunctively with PBS control vehicle only. Subjects were sacrificed by ketamine and xylazine on day 14 post surgery. […] Aliquots of retinal protein (30 μg) from lysates, or a control β-actin material were loaded to gels and transferred onto nitrocellulose membranes. Blots were probed overnight at 4° C. with rabbit anti mouse antibody specific for glial fibrillary acidic protein (GFAP; 50,000 dilution; Abcam Inc.; FIG. 18 top row), or with a control antibody specific for β-actin. […] Control blots were probed with rabbit antibody specific for β-actin (FIG. 18 bottom row). The probes were washed and were incubated with goat anti rabbit IRDye 800CW antibody (1:10,000 dilution; LI-Cor Biosciences). Membranes were scanned and quantified using an Odessey imaging system (Li-Cor Biosciences).
C57BJ/6 mice were anesthetized by intraperiteoneal injection of ketamine and xylazine mixture. Corneas were topically anesthetized by application of proparacain eye drop. […]
Subjects were sacrificed on day fourteen after alkalisurgery using a mixture of ketamine and xylazine. […] The membranes were washed and incubated with goat anti rabbit IRDye 800CW antibody (1:10,000; Li-Cor Inc.), the membranes were scanned and quantified with Odessey imaging system (Li-Cor Inc.). […]

galectin-1 / VEGFR-2 = target: T1, galectin-1 / VEGFR-2 (Homo sapiens, UniProt P09382); test: HUVEC lysate VEGFR-2 pull-down on galectin-1 agarose beads; type: binding; settings: 0.1 M saccharide
T1 construct: host or cells: VEGFR-2: endogenous, HUVEC lysate
Excerpt: FIG. 12 is a photomicrograph of a western blot showing that galectin-1 and galectin-3 interacted with VEGFR-2. […] Control samples contained only HUVEC lysates or beads. Bound material was eluted with Laemmli sample buffer, added to 4-20% SDS-PAGE gels, and electrophoresed. Gels were transferred onto membrane blots, which was then probed with anti-VEGFR-2 antibody. VEGFR-2 antibody was observed bound to the HUVEC lysate control and not to the bead only control. […] Thus, the interaction between VEGFR-2 and galectin-1 and galectin-3 was observed herein to be carbohydrate-dependent.
Control HUVEC lysates were incubated with galectin-1 agarose beads or galectin-3 agarose beads only. The beads were rinsed to remove unbound material.
HUVEC lysate material bound to the beads was eluted with the Laemmli sample buffer and was analyzed using gel electrophoresis (4-20% SDS-PAGE gels). Following blocking, membrane blots were probed using anti-VEGFR-2 antibody (FIG. 12). […] Further, the VEGFR2 HUVEC lysate binding to the beads was […] for beads treated with sucrose, a noncompeting saccharide.

galectin-3 / VEGFR-2 = target: T2, galectin-3 / VEGFR-2 (Homo sapiens, UniProt P17931); test: HUVEC lysate VEGFR-2 pull-down on galectin-3 agarose beads; type: binding; settings: 0.1 M saccharide
T2 construct: host or cells: VEGFR-2: endogenous, HUVEC lysate
T2 sequence (P17931 whole entry): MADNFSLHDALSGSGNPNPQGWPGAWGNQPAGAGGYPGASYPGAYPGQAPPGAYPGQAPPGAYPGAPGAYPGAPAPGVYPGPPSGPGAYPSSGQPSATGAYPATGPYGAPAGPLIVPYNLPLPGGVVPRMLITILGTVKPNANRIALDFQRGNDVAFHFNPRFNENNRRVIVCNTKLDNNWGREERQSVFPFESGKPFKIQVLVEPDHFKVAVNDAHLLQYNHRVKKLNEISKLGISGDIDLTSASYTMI

T1 sequence (P09382 whole entry): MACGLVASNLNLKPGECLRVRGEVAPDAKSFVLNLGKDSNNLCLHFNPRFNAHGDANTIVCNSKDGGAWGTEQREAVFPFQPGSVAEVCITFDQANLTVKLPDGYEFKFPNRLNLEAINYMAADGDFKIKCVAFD
recombinant galectin-1, sequence (P09382 whole entry): as above
recombinant galectin-3, sequence (P17931 whole entry): as the sequence (P17931 whole entry) above

Question: Which “Spreading of TM cells on galectin-8 protein coated wells” value [1] does the source give for CC(=O)N[C@H]1[C@H]([C@H](O)[C@H](O)CO)O[C@@](O[C@H]2[C@@H](O)[C@@H](CO)O[C@@H](O[C@H]3[C@H](O)[C@@H](NC(C)=O)C(O)O[C@@H]3CO)[C@@H]2O)(C(=O)O)C[C@@H]1O (stereo partly shown) [NeuAca2-3Galβ1-4GlcNAc] here?
Answer: inhibited

Question: Which “Spreading of TM cells on galectin-8 protein coated wells” value [1] does the source give for CC(=O)N[C@H]1[C@H]([C@H](O)[C@H](O)CO)O[C@](OC[C@H]2O[C@@H](O[C@H]3[C@H](O)[C@@H](NC(C)=O)C(O)O[C@@H]3CO)[C@H](O)[C@@H](O)[C@H]2O)(C(=O)O)C[C@@H]1O (stereo partly shown) [NeuAca2-6Galβ1-4GlcNAc] here?
Answer: no effect

Question: For OC[C@H]1O[C@@H](S[C@@H]2O[C@H](CO)[C@H](O)[C@H](n3cc(-c4cccc(F)c4)nn3)[C@H]2O)[C@H](O)[C@@H](n2cc(-c3cccc(F)c3)nn2)[C@H]1O [TD139, bis-{3-deoxy-3-[4-(3-fluorophenyl)-1H-1,2,3-triazol-1-yl]-β-D-galactopyranosyl}sulfane], which “Decrease of VEGF-mediated EC sprouting” value ([2]; 10 μM TD139, compared to VEGF alone) is on record?
Answer: about one-third

Question: And the “Reduction of the extent of VEGF-mediated sprouting” value ([2]; 50 μM TD139)?
Answer: about two-thirds

Question: And the “Density of blood vessels covering the cornea (percent area)” value (mouse corneas [3])?
Answer: 28%

Question: What about the “Binding to galectin-1” value (recombinant galectin-1) of the same compound?
Answer: specifically bound

Question: And the “Binding to galectin-3” value (recombinant galectin-3)?
Answer: specifically bound

Question: And the “VEGF-A-induced sprouting (cumulative sprout length)” value (HUVEC spheroids)?
Answer: significantly inhibited

Question: What about the “VEGF-A-induced chemotaxis and migration” value (HUVEC [4]; TD139 1 to 5000 nM, dose-dependent) of the same compound?
Answer: significantly abrogated

Question: And the “Concentration as low as which VEGF-A-induced chemotaxis was significantly abrogated” value (HUVEC [4]; VEGF-A 100 ng/mL)?
Answer: 1 nM

Question: And the “Calcein AM fluorescence (cell viability)” value (HUVEC [5])?
Answer: comparable calcein AM fluorescence

Question: What about the “WST-1 signal (cell viability)” value (HUVEC [5]) of the same compound?
Answer: comparable cell viability

Question: What about the “Total protein expression of VEGFR2” value (VEGFR2) of the same compound?
Answer: little or no effect

Question: What about the “Corneal opacity (score 0-4)” value (mouse corneas [6]; 10 μl of 50 mM TD139 subconjunctival daily for 14 days after alkali) of the same compound?
Answer: area of opacity less than about the site of the pupil; also recorded: reduced corneal opacity

Question: What about the “Reduction of α-SMA (smooth muscle actin) expression in corneal lysates” value (mouse corneas [6]; 10 μl of 50 mM TD139 subconjunctival daily for 14 days) of the same compound?
Answer: 30%

Question: What about the “GFAP expression in retinal lysates” value (mouse retinas) of the same compound?
Answer: reduced expression of GFAP

Question: For OC[C@H]1O[C@@H](O[C@H]2[C@H](O)[C@@H](O)C(O)O[C@@H]2CO)[C@H](O)[C@@H](O)[C@H]1O (stereo partly shown) [lactose], which “Inhibition of VEGFR-2 binding to galectin-1 beads” value (galectin-1 / VEGFR-2) is on record?
Answer: inhibited

Question: What about the “Adhesion of TM cells to galectin-8 coated wells” value [1] of the same compound?
Answer: inhibited or prevented

Question: Which results are given for OC[C@H]1O[C@@](CO)(O[C@H]2O[C@H](CO)[C@@H](O)[C@H](O)[C@H]2O)[C@@H](O)[C@@H]1O [sucrose]?
Answer: Inhibition of VEGFR-2 binding to galectin-1 beads (galectin-1 / VEGFR-2): not inhibited; Inhibition of VEGFR-2 binding to galectin-3 beads (galectin-3 / VEGFR-2): not inhibited; Adhesion of TM cells to galectin-8 coated wells [1]: not inhibited

Question: For Triton™ X-100, which “Calcein AM fluorescence (cell viability)” value (HUVEC [5]) is on record?
Answer: reduced fluorescence

Question: What about the “WST-1 signal (cell viability)” value (HUVEC [5]) of the same compound?
Answer: reduced WST-1 fluorescence

Question: Which “Fold change in capillary sprouting of EC over control cells not contracted with VEGF and inhibitor” value ([2]; VEGF 25 ng/mL only) does the source give for VEGF here?
Answer: 650 fold and 921 fold and 604 fold and 800 fold

Question: What about the “Formation of endothelial cell sprouts compared to medium only” value ([2]; VEGF 25 ng/mL only) of the same compound?
Answer: four-fold
